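Five concentrations, 48 hours, 96-well plates. TGI is the concentration that stops growth completely.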 A value given as a limit tells only on which side of the number the result lay.

Among the test systems are UO-31 renal; DLD-1 colon; HOP-92 NSCLC; HCT-15 colon; UACC-257 melanoma; ACHN renal; LXFL 529 NSCLC; HOP-62 NSCLC; SK-MEL-5 melanoma; SK-OV-3 ovarian; SF-539 CNS; SNB-19 CNS; MALME-3M melanoma; COLO 205 colon; U251 CNS; DMS 273 small cell lung.
Holding throughout (test): NCI tumour cell line growth inhibition, 48 h

As for `Cc1n(CC(C)C)c2c([n+]1C)C(=O)c1ccccc1C2=O`, the TGI in the test on UO-31 renal was determined as 3.55 µM; with DLD-1 colon, 0.975 µM; in the test on HOP-92 NSCLC, 4.44 µM; with HCT-15 colon it was 4.39 µM; in the test on UACC-257 melanoma, 0.156 µM; in the test with ACHN renal, 3.53 µM. Also, the TGI stood at 0.508 µM in the test with LXFL 529 NSCLC; 0.76 µM in the test with HOP-62 NSCLC; 0.139 µM with SK-MEL-5 melanoma; 2.2 µM with SK-OV-3 ovarian; 0.532 µM in the test on SF-539 CNS; 0.647 µM in the test with SNB-19 CNS. In addition, the TGI in the test with MALME-3M melanoma is 0.28 µM; with COLO 205 colon, 0.0575 µM; in the test with U251 CNS, 0.499 µM; with DMS 273 small cell lung it was 0.786 µM.

For the compound `Cc1ccc2c(ccc(/C=C/c3ccc(O)c4ncccc34)[n+]2C)c1`, the TGI in the test on UO-31 renal is above 49.3 µM; in the test on DLD-1 colon, 38.3 µM; in the test with HOP-92 NSCLC it was 31.1 µM; in the test with HCT-15 colon it was above 100 µM; in the test on UACC-257 melanoma, 24.2 µM; with ACHN renal it was 33.1 µM. For the same compound, the TGI is 19.7 µM in the test on LXFL 529 NSCLC; 32.9 µM in the test on HOP-62 NSCLC; 35.3 µM with SK-MEL-5 melanoma; 34.3 µM in the test on SK-OV-3 ovarian; 23.1 µM with SF-539 CNS; 36.9 µM in the test on SNB-19 CNS. Also, the TGI with MALME-3M melanoma stood at 31.4 µM; in the test with COLO 205 colon, 39.9 µM; in the test on U251 CNS it was 26.8 µM; with DMS 273 small cell lung, 17.2 µM.

`CCOC1C(Br)Cn2c(=O)c3cc4ccccc4cc3c(=O)n2C1C` (stereo not drawn): the TGI with UO-31 renal, with DLD-1 colon, with HOP-92 NSCLC, with HCT-15 colon, in the test with UACC-257 melanoma and with ACHN renal was above 100 µM throughout. In addition, the TGI in the test with LXFL 529 NSCLC, in the test on HOP-62 NSCLC, in the test with SK-MEL-5 melanoma, with SK-OV-3 ovarian, with SF-539 CNS and in the test on SNB-19 CNS was above 100 µM each time. Also, the TGI in the test on MALME-3M melanoma, in the test with COLO 205 colon, in the test on U251 CNS and in the test with DMS 273 small cell lung was above 100 µM throughout.

Source of the values: PubChem BioAssay (NCI).
